Assay results from patent US20050009840A1 (SUGEN, INC., priority 2003, published 2005).

Target: T1, HGFR (Homo sapiens, UniProt P08581)
T1 construct: purchased Upstate 14-526
Assay: HGFR continuous-coupled spectrophotometric assay
Type: biochemical
Conditions: at 1 pM; Table 6, library procedure 41; read-out: % Inhibition (percent c-MET inhibition)

T1 sequence (P08581 974-1390 limits assumed): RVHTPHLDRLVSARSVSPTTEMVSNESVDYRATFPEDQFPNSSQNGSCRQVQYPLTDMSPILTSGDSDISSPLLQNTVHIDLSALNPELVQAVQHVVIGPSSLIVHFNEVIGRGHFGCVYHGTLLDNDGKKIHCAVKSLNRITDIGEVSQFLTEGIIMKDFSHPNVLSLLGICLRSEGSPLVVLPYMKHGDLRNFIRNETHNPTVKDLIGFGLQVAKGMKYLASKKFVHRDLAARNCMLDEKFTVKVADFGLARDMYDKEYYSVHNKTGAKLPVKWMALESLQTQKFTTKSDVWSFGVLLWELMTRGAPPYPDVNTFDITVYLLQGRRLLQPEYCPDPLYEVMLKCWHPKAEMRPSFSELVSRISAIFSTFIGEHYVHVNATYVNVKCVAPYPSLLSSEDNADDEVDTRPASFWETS

Row | SMILES | inhibition at 1 pM [%]
1 | Nc1ncc(C(=O)NC2CCSC2=O)cc1OCc1c(Cl)cccc1Cl [Example L-189] | 35
2 | CC(=O)NCCNC(=O)c1cnc(N)c(OCc2c(Cl)cccc2Cl)c1 [Example L-190] | 35
3 | CN(C)CC(C)(C)CNC(=O)c1cnc(N)c(OCc2c(Cl)cccc2Cl)c1 [Example L-191] | 38
4 | N#CC1(c2ccccc2)CCN(C(=O)c2cnc(N)c(OCc3c(Cl)cccc3Cl)c2)CC1 [Example L-193] | 37
5 | Nc1ncc(C(=O)N2CCC(O)CC2)cc1OCc1c(Cl)cccc1Cl [Example L-194] | 35
6 | Nc1ncc(C(=O)NCc2ccc(O)cc2)cc1OCc1c(Cl)cccc1Cl [Example L-195] | 37
7 | Nc1ncc(C(=O)N2CCN(c3ccccn3)CC2)cc1OCc1c(Cl)cccc1Cl [Example L-196] | 34
8 | Nc1ncc(C(=O)NCc2ccccc2Br)cc1OCc1c(Cl)cccc1Cl [Example L-197] | 36
9 | COc1ccc(CNC(=O)c2cnc(N)c(OCc3c(Cl)cccc3Cl)c2)c(OC)c1 [Example L-198] | 59
10 | Nc1ncc(C(=O)NCCc2ccccc2F)cc1OCc1c(Cl)cccc1Cl [Example L-199] | 33
11 | Nc1ncc(C(=O)NCc2ccccc2OC(F)(F)F)cc1OCc1c(Cl)cccc1Cl [Example L-200] | 31
12 | CC(C)NC(=O)CN1CCN(C(=O)c2cnc(N)c(OCc3c(Cl)cccc3Cl)c2)CC1 [Example L-201] | 30
13 | Nc1ncc(C(=O)N2CCN(CCOCCO)CC2)cc1OCc1c(Cl)cccc1Cl [Example L-202] | 33
14 | CCN(CC)C(=O)C1CCCN(C(=O)c2cnc(N)c(OCc3c(Cl)cccc3Cl)c2)C1 [Example L-203] | 33
15 | Nc1ncc(C(=O)N2CCN(CCO)CC2)cc1OCc1c(Cl)cccc1Cl [Example L-204] | 51
16 | CN1CCN(C(=O)c2cnc(N)c(OCc3c(Cl)cccc3Cl)c2)CC1 [Example L-205] | 32
17 | Nc1ncc(C(=O)N2CCN(CC(=O)N3CCCC3)CC2)cc1OCc1c(Cl)cccc1Cl [Example L-206] | 32
18 | Nc1ncc(C(=O)N2CCCCC2CCO)cc1OCc1c(Cl)cccc1Cl [Example L-207] | 33
19 | COc1ccc(C(NC(=O)c2cnc(N)c(OCc3c(Cl)cccc3Cl)c2)C2CC2)cc1 [Example L-208] | 27
20 | Nc1ncc(C(=O)N2CCN(CCCO)CC2)cc1OCc1c(Cl)cccc1Cl [Example L-209] | 31
21 | CC(C)(CO)CNC(=O)c1cnc(N)c(OCc2c(Cl)cccc2Cl)c1 [Example L-210] | 39
22 | Nc1ncc(C(=O)N2CCN(CC(=O)N3CCOCC3)CC2)cc1OCc1c(Cl)cccc1Cl [Example L-211] | 31
23 | Nc1ncc(C(=O)NCCc2c[nH]c3ccc(Cl)cc23)cc1OCc1c(Cl)cccc1Cl [Example L-212] | 36
24 | CC(=O)N(C)C1CCN(C(=O)c2cnc(N)c(OCc3c(Cl)cccc3Cl)c2)C1 [Example L-213] | 31
25 | CC(O)CNC(=O)c1cnc(N)c(OCc2c(Cl)cccc2Cl)c1 [Example L-214] | 49
26 | Cc1cnc(CNC(=O)c2cnc(N)c(OCc3c(Cl)cccc3Cl)c2)cn1 [Example L-215] | 33

Row | SMILES | inhibition at 1 pM [%]
27 | NC(=O)N1CCN(C(=O)c2cnc(N)c(OCc3c(Cl)cccc3Cl)c2)CC1 [Example L-216] | 29
28 | Nc1ncc(C(=O)NCCCN2CCCC2=O)cc1OCc1c(Cl)cccc1Cl [Example L-217] | 34
29 | CC(CCCC(C)(C)O)NC(=O)c1cnc(N)c(OCc2c(Cl)cccc2Cl)c1 [Example L-218] | 35
30 | Nc1ncc(C(=O)NCCc2ccc(O)cc2)cc1OCc1c(Cl)cccc1Cl [Example L-219] | 34
31 | Nc1ncc(C(=O)NCc2ccc(F)cc2)cc1OCc1c(Cl)cccc1Cl [Example L-220] | 32
32 | CN(C)CCNC(=O)c1cnc(N)c(OCc2c(Cl)cccc2Cl)c1 [Example L-221] | 29
33 | CC(C)CCNC(=O)c1cnc(N)c(OCc2c(Cl)cccc2Cl)c1 [Example L-222] | 26
34 | Nc1ncc(C(=O)NCCc2c[nH]c3ccc(O)cc23)cc1OCc1c(Cl)cccc1Cl [Example L-223] | 29
35 | Nc1ncc(C(=O)NCC(F)(F)F)cc1OCc1c(Cl)cccc1Cl [Example L-224] | 30
36 | CN1CCC(N(C)C(=O)c2cnc(N)c(OCc3c(Cl)cccc3Cl)c2)C1 [Example L-225] | 33
37 | Nc1ncc(C(=O)NCc2ccc(OC(F)(F)F)cc2)cc1OCc1c(Cl)cccc1Cl [Example L-226] | 24
38 | Nc1ncc(C(=O)N2CCC(O)C2)cc1OCc1c(Cl)cccc1Cl [Example L-227] | 83
39 | Nc1ncc(C(=O)NC[C@H]2CCCC[C@H]2O)cc1OCc1c(Cl)cccc1Cl [Example L-228] | 24
40 | Nc1ncc(C(=O)N[C@@H]2CCCC[C@H]2CO)cc1OCc1c(Cl)cccc1Cl [Example L-229] | 24
41 | Nc1ncc(C(=O)N[C@@H]2c3ccccc3C[C@@H]2O)cc1OCc1c(Cl)cccc1Cl [Example L-230] | 23
42 | Nc1ncc(C(=O)N2CCC(O)(Cc3ccccc3)CC2)cc1OCc1c(Cl)cccc1Cl [Example L-231] | 62
43 | COc1cc(CCNC(=O)c2cnc(N)c(OCc3c(Cl)cccc3Cl)c2)ccc1O [Example L-233] | 32
44 | Nc1ncc(C(=O)NCC2COc3ccccc3O2)cc1OCc1c(Cl)cccc1Cl [Example L-234] | 34
45 | CC(NC(=O)c1cnc(N)c(OCc2c(Cl)cccc2Cl)c1)c1ccc(O)cc1 [Example L-235] | 36
46 | Nc1ncc(C(=O)N2CCCC(O)C2)cc1OCc1c(Cl)cccc1Cl [Example L-236] | 33
47 | CN(CC#N)C(=O)c1cnc(N)c(OCc2c(Cl)cccc2Cl)c1 [Example L-237] | 30
48 | CC(O)CCNC(=O)c1cnc(N)c(OCc2c(Cl)cccc2Cl)c1 [Example L-238] | 35
49 | Nc1ncc(C(=O)NCCO)cc1OCc1c(Cl)cccc1Cl [Example L-239] | 34
50 | Nc1ncc(C(=O)NCCc2ccncc2)cc1OCc1c(Cl)cccc1Cl [Example L-240] | 30
51 | CCCC(CO)NC(=O)c1cnc(N)c(OCc2c(Cl)cccc2Cl)c1 [Example L-241] | 30
52 | Nc1ncc(C(=O)NCCOc2ccccc2)cc1OCc1c(Cl)cccc1Cl [Example L-242] | 66

Row | SMILES | inhibition at 1 pM [%]
53 | C[C@@H]1CN(C(=O)c2cnc(N)c(OCc3c(Cl)cccc3Cl)c2)C[C@H](C)O1 [Example L-243] | 32
54 | CN(C)C1CCN(C(=O)c2cnc(N)c(OCc3c(Cl)cccc3Cl)c2)C1 [Example L-244] | 33
55 | Nc1ncc(C(=O)NCc2ccc(F)cc2F)cc1OCc1c(Cl)cccc1Cl [Example L-245] | 33
56 | CN(CCC(O)c1ccccc1)C(=O)c1cnc(N)c(OCc2c(Cl)cccc2Cl)c1 [Example L-246] | 28
57 | COc1cc(CCNC(=O)c2cnc(N)c(OCc3c(Cl)cccc3Cl)c2)cc(OC)c1O [Example L-247] | 25
58 | COCCN1CCN(C(=O)c2cnc(N)c(OCc3c(Cl)cccc3Cl)c2)CC1 [Example L-248] | 27
59 | Nc1ncc(C(=O)NCc2cccc(OC(F)F)c2)cc1OCc1c(Cl)cccc1Cl [Example L-249] | 32
60 | Nc1ncc(C(=O)NCc2ccc(F)cc2Cl)cc1OCc1c(Cl)cccc1Cl [Example L-250] | 37
61 | Nc1ncc(C(=O)NCC(O)c2ccc(O)cc2)cc1OCc1c(Cl)cccc1Cl [Example L-251] | 29
62 | Nc1ncc(C(=O)N2CCC(C(=O)c3ccccc3)CC2)cc1OCc1c(Cl)cccc1Cl [Example L-252] | 32
63 | NC(=O)CCNC(=O)c1cnc(N)c(OCc2c(Cl)cccc2Cl)c1 [Example L-253] | 28
64 | CC(CN(C)C)NC(=O)c1cnc(N)c(OCc2c(Cl)cccc2Cl)c1 [Example L-254] | 45
65 | CCCOCCNC(=O)c1cnc(N)c(OCc2c(Cl)cccc2Cl)c1 [Example L-255] | 45
66 | CC(C)OCCNC(=O)c1cnc(N)c(OCc2c(Cl)cccc2Cl)c1 [Example L-256] | 46
67 | Nc1ncc(C(=O)N2CCC(CO)CC2)cc1OCc1c(Cl)cccc1Cl [Example L-257] | 43
68 | Nc1ncc(C(=O)N2CCC(CCO)CC2)cc1OCc1c(Cl)cccc1Cl [Example L-258] | 45
69 | CN(CC(N)=O)C(=O)c1cnc(N)c(OCc2c(Cl)cccc2Cl)c1 [Example L-259] | 39
70 | CC1CCC(=O)C(NC(=O)c2cnc(N)c(OCc3c(Cl)cccc3Cl)c2)C1 [Example L-260] | 40
71 | Nc1ncc(C(=O)N2CCN(CCCN3CCOCC3)CC2)cc1OCc1c(Cl)cccc1Cl [Example L-261] | 40
72 | CN(C)C(=O)CN1CCN(C(=O)c2cnc(N)c(OCc3c(Cl)cccc3Cl)c2)CC1 [Example L-262] | 42
73 | Nc1ncc(C(=O)NCCN2CCN(Cc3ccccc3)CC2)cc1OCc1c(Cl)cccc1Cl [Example L-263] | 36
74 | Nc1ncc(C(=O)NC[C@H]2CC[C@H](c3nc4ccccc4[nH]3)CC2)cc1OCc1c(Cl)cccc1Cl [Example L-264] | 38
75 | Nc1ncc(C(=O)NCc2ccc(C(F)(F)F)nc2)cc1OCc1c(Cl)cccc1Cl [Example L-265] | 17
76 | CN(C)C(=O)c1cnc(N)c(OCc2c(Cl)cccc2Cl)c1 [Example L-266] | 10
77 | Nc1ncc(C(=O)N2CCN(c3ccc(Br)cn3)CC2)cc1OCc1c(Cl)cccc1Cl [Example L-267] | 5

Same assay, conditions: read-out: % Inhibition (percent c-MET inhibition)

Row | SMILES | inhibition at 1 pM [%]
78 | CCC(=O)C(c1ccccc1)C1CCN(C(=O)c2cnc(N)c(OCc3c(Cl)cccc3Cl)c2)CC1 [Example L-192] | 44
79 | Nc1ncc(C(=O)N2CCC(=O)CC2)cc1OCc1c(Cl)cccc1Cl [Example L-232] | 44
